Earlier results in publication PMC9063988 (JACS Au, 2022).

Test system: uptake of ETP transporter 21 into HeLa Kyoto cells

O[C@H](CS)[C@@H](O)CS [DTE, 1,4-Dithioerythritol]
inhibition of thiol-mediated uptake: fail to inhibit
